Test results published in ChEMBL document CHEMBL1201862, “PubChem BioAssay data set” (2004).
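Values below derive from 48-hour exposures of cells grown in 96-well plates, with endpoints linearly interpolated between the two concentrations bracketing the appropriate inhibition level. GI50 marks 50% less growth.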 The source made the active and inactive calls. No stated cut-off is given here; in the data, active = GI50 up to about 1.1 µM and inactive = higher.

How the values were obtained:
Experiment in all cases: NCI anticancer screen, dose series, 48 h
K562 = system: K562
MCF7 = system: MCF7
SK-OV-3 = system: SK-OV-3
SW-620 = system: SW-620
OVCAR-8 = system: OVCAR-8
M14 = system: M14
HT-29 = system: HT-29
CCRF-CEM = system: CCRF-CEM
SK-MEL-2 = system: SK-MEL-2
NCI/ADR-RES = system: NCI/ADR-RES
ACHN = system: ACHN
TK-10 = system: TK-10
SNB-19 = system: SNB-19
DU-145 = system: DU-145
SK-MEL-5 = system: SK-MEL-5
OVCAR-3 = system: OVCAR-3
SR = system: SR
HOP-92 = system: HOP-92

In the case of N#CC1=C(N)N(c2ccccc2)C(c2ccccc2)C1(C#N)C#N (centres undefined), the GI50 (K562) is reported as 6.05 µM (inactive), the GI50 (MCF7) is reported as 14.8 µM (inactive) and the GI50 (SK-OV-3) is reported as 24.9 µM (inactive). The GI50 (SW-620) was 19.1 µM (inactive), the GI50 (OVCAR-8) was 16.2 µM (inactive) and the GI50 (M14) was 21 µM (inactive). For the same molecule, the GI50 (HT-29) was 15.7 µM (inactive), the GI50 (CCRF-CEM) was 12.8 µM (inactive) and the GI50 (SK-MEL-2) was 16.4 µM (inactive). The GI50 (NCI/ADR-RES) was 20.3 µM (inactive), the GI50 (ACHN) was 18.1 µM (inactive) and the GI50 (TK-10) was 16.5 µM (inactive). For the same molecule, the GI50 (SNB-19) was 18.4 µM (inactive), the GI50 (DU-145) was 17.8 µM (inactive) and the GI50 (SK-MEL-5) was 13.5 µM (inactive). The GI50 (OVCAR-3) was 17.8 µM (inactive) and the GI50 (SR) was 17.1 µM (inactive).
In the case of CCOC(=O)c1cc2c(=Cc3ccc(N(C)C)cc3)c3ccccc3n2[n+]1C, the GI50 (K562) is reported as 0.787 µM (active), the GI50 (MCF7) is reported as 2.34 µM (inactive) and the GI50 (SK-OV-3) is reported as 3.94 µM (inactive). The GI50 (SW-620) was 0.637 µM (active), the GI50 (HOP-92) was 2.88 µM (inactive) and the GI50 (M14) was 3.15 µM (inactive). The GI50 (HT-29) was < 0.01 µM (active), the GI50 (SK-MEL-2) was 1.48 µM (inactive) and the GI50 (NCI/ADR-RES) was > 100 µM (inactive). The GI50 (ACHN) was 5.87 µM (inactive), the GI50 (TK-10) was 7.67 µM (inactive) and the GI50 (SNB-19) was 2.15 µM (inactive). The GI50 (DU-145) was 1.38 µM (inactive), the GI50 (SK-MEL-5) was 1.32 µM (inactive) and the GI50 (OVCAR-3) was 0.206 µM (active).
O=Cc1[nH]c(=O)[nH]c(=O)c1CCl was tested, and the GI50 (K562) was 50.8 µM (inactive), the GI50 (MCF7) was > 65.8 µM (inactive) and the GI50 (SK-OV-3) was > 100 µM (inactive). For the same molecule, the GI50 (SW-620) was 38.7 µM (inactive), the GI50 (OVCAR-8) was > 82.4 µM (inactive) and the GI50 (HOP-92) was > 62.1 µM (inactive). The GI50 (HT-29) was > 88.9 µM (inactive), the GI50 (CCRF-CEM) was > 52.7 µM (inactive) and the GI50 (SK-MEL-2) was > 90.2 µM (inactive). For the same molecule, the GI50 (NCI/ADR-RES) was > 100 µM (inactive), the GI50 (ACHN) was > 83 µM (inactive) and the GI50 (TK-10) was > 100 µM (inactive). For the same molecule, the GI50 (SNB-19) was > 100 µM (inactive), the GI50 (DU-145) was > 100 µM (inactive) and the GI50 (SK-MEL-5) was > 82 µM (inactive). For the same molecule, the GI50 (OVCAR-3) was > 100 µM (inactive) and the GI50 (SR) was 30.6 µM (inactive).
CC(=O)c1ccc2c(c1)CC1(C2)Cc2ccc3c(c2C1=O)CCC3 (centres undefined) was tested, and the GI50 (K562) was 15 µM (inactive), the GI50 (MCF7) was 22.5 µM (inactive) and the GI50 (SK-OV-3) was 34.9 µM (inactive). The GI50 (SW-620) was 41 µM (inactive), the GI50 (HOP-92) was 14.2 µM (inactive) and the GI50 (M14) was 20 µM (inactive). The GI50 (HT-29) was 15.2 µM (inactive), the GI50 (CCRF-CEM) was 24.3 µM (inactive) and the GI50 (SK-MEL-2) was 17.1 µM (inactive). For the same molecule, the GI50 (NCI/ADR-RES) was 20.1 µM (inactive), the GI50 (ACHN) was 27.7 µM (inactive) and the GI50 (TK-10) was 24 µM (inactive). The GI50 (SNB-19) was 53.1 µM (inactive), the GI50 (DU-145) was 31.3 µM (inactive) and the GI50 (SK-MEL-5) was 13.3 µM (inactive). For the same molecule, the GI50 (OVCAR-3) was 31 µM (inactive) and the GI50 (SR) was 65.5 µM (inactive).
For CC(C)OC(=O)[C@@H]1OC(C)(C)O[C@H]1C(=O)OC(C)C, the GI50 (K562) was > 100 µM (inactive), the GI50 (MCF7) was > 100 µM (inactive) and the GI50 (SK-OV-3) was > 100 µM (inactive). For the same molecule, the GI50 (SW-620) was > 100 µM (inactive), the GI50 (OVCAR-8) was > 100 µM (inactive) and the GI50 (HOP-92) was > 100 µM (inactive). For the same molecule, the GI50 (HT-29) was > 100 µM (inactive), the GI50 (CCRF-CEM) was > 100 µM (inactive) and the GI50 (SK-MEL-2) was > 100 µM (inactive). For the same molecule, the GI50 (NCI/ADR-RES) was > 100 µM (inactive), the GI50 (ACHN) was > 100 µM (inactive) and the GI50 (TK-10) was > 100 µM (inactive). The GI50 (SNB-19) was > 100 µM (inactive), the GI50 (DU-145) was > 100 µM (inactive) and the GI50 (SK-MEL-5) was > 100 µM (inactive). The GI50 (SR) was > 100 µM (inactive).
With COc1cccc(C2c3cc4c(cc3OC3COC(=O)C32)OCO4)c1OC (centres undefined) the GI50 (MCF7) was 83 µM (inactive), the GI50 (SK-OV-3) was 57.8 µM (inactive) and the GI50 (SW-620) was > 100 µM (inactive). For the same molecule, the GI50 (OVCAR-8) was > 100 µM (inactive), the GI50 (HOP-92) was 99.8 µM (inactive) and the GI50 (M14) was > 100 µM (inactive). For the same molecule, the GI50 (HT-29) was > 100 µM (inactive), the GI50 (CCRF-CEM) was > 100 µM (inactive) and the GI50 (SK-MEL-2) was 49.4 µM (inactive). The GI50 (NCI/ADR-RES) was > 100 µM (inactive), the GI50 (ACHN) was > 100 µM (inactive) and the GI50 (TK-10) was > 100 µM (inactive). For the same molecule, the GI50 (SNB-19) was > 100 µM (inactive), the GI50 (DU-145) was > 100 µM (inactive) and the GI50 (SK-MEL-5) was > 100 µM (inactive). The GI50 (OVCAR-3) was > 100 µM (inactive).
With CCn1c(-c2ccc(OC)cc2)nc2c1C(=O)c1ccccc1C2=O the GI50 (K562) was > 100 µM (inactive), the GI50 (MCF7) was > 100 µM (inactive) and the GI50 (SK-OV-3) was > 100 µM (inactive). For the same molecule, the GI50 (SW-620) was > 100 µM (inactive), the GI50 (OVCAR-8) was > 100 µM (inactive) and the GI50 (HOP-92) was > 100 µM (inactive). For the same molecule, the GI50 (M14) was > 100 µM (inactive), the GI50 (HT-29) was > 100 µM (inactive) and the GI50 (CCRF-CEM) was > 100 µM (inactive). For the same molecule, the GI50 (NCI/ADR-RES) was > 100 µM (inactive), the GI50 (ACHN) was > 100 µM (inactive) and the GI50 (TK-10) was > 100 µM (inactive). For the same molecule, the GI50 (SNB-19) was > 100 µM (inactive), the GI50 (DU-145) was > 100 µM (inactive) and the GI50 (SK-MEL-5) was > 100 µM (inactive). For the same molecule, the GI50 (OVCAR-3) was > 100 µM (inactive) and the GI50 (SR) was > 100 µM (inactive).
In the case of COC(=O)CCC1=NCC(C)(C)O1, the GI50 (K562) is reported as 0.182 µM (active), the GI50 (MCF7) is reported as > 10 µM (inactive) and the GI50 (SK-OV-3) is reported as > 10 µM (inactive). The GI50 (SW-620) was > 10 µM (inactive), the GI50 (OVCAR-8) was > 10 µM (inactive) and the GI50 (M14) was > 10 µM (inactive). For the same molecule, the GI50 (HT-29) was > 10 µM (inactive), the GI50 (CCRF-CEM) was > 10 µM (inactive) and the GI50 (SK-MEL-2) was > 10 µM (inactive). For the same molecule, the GI50 (NCI/ADR-RES) was > 10 µM (inactive), the GI50 (ACHN) was > 10 µM (inactive) and the GI50 (TK-10) was > 10 µM (inactive). The GI50 (SNB-19) was > 10 µM (inactive), the GI50 (DU-145) was > 10 µM (inactive) and the GI50 (SK-MEL-5) was > 10 µM (inactive). For the same molecule, the GI50 (OVCAR-3) was > 10 µM (inactive) and the GI50 (SR) was > 10 µM (inactive).
With CCN(CCCl)c1ccc(NC(=O)c2cc(C(=O)NCCN(C)C)cc(C(=O)Nc3ccc(N(CC)CCCl)cc3)c2)cc1 the GI50 (K562) was 2.09 µM (inactive), the GI50 (MCF7) was 0.746 µM (active) and the GI50 (SK-OV-3) was 4.26 µM (inactive). The GI50 (SW-620) was 1.76 µM (inactive), the GI50 (OVCAR-8) was 3.57 µM (inactive) and the GI50 (HOP-92) was 3.74 µM (inactive). For the same molecule, the GI50 (M14) was 9.38 µM (inactive), the GI50 (HT-29) was 1.57 µM (inactive) and the GI50 (CCRF-CEM) was 0.0687 µM (active). For the same molecule, the GI50 (SK-MEL-2) was 15.7 µM (inactive), the GI50 (NCI/ADR-RES) was > 100 µM (inactive) and the GI50 (ACHN) was 5.25 µM (inactive). For the same molecule, the GI50 (TK-10) was 16.7 µM (inactive), the GI50 (SNB-19) was 1.36 µM (inactive) and the GI50 (DU-145) was 8.41 µM (inactive). The GI50 (SK-MEL-5) was 12.3 µM (inactive) and the GI50 (SR) was 0.659 µM (active).
